Data: patent US20230287138A1, “PROTEIN-DRUG CONJUGATES COMPRISING CAMPTOTHECIN ANALOGS AND METHODS OF USE THEREOF” (Regneron Pharmaceuticals, Inc., priority 2022, published 2023)
Where two headings read alike, the source gives them in different places.

Tested on: HCT-15
Assay: HCT-15 data of payloads and linker-payloads (EC50, with or without verapamil)
Type: cell-based
[1] = Homo sapiens, linker-payload, HCT-15 cells, read-out: HCT-15 EC50
[2] = Homo sapiens, payload, HCT-15 cells, no verapamil, read-out: HCT-15 EC50
[3] = payload, HCT-15 cells plus verapamil, read-out: HCT-15 + verapamil EC50

SMILES	EC50 [1] [µM]	EC50 [2] [µM]	EC50 [3] [µM]	EC50 (Homo sapiens, payload, HCT-15 cells plus verapamil, read-out: HCT-15 + verapamil EC50) [µM]
CC[C@@]1(O)C(=O)OCc2c1cc1n(c2=O)Cc2c-1nc1cc(F)c(C)c3c1c2[C@@H](NC(=O)OCc1ccc(O[C@@H]2O[C@H](C(=O)O)[C@@H](O)[C@H](O)[C@H]2O)c(C(=O)NCCNC(=O)COC2C#CCCCCC2)c1)CC3 (stereo partly drawn) [LP3, (2S,3S,4S,5R,6S)-6-[2-({2-[2-(Cyclooct-2-yn-1-yloxy)acetamido]ethyl}carbamoyl)-4-[({[(10S,23S)-10-ethyl-18-fluoro-10-hydroxy-19-methyl-5,9-dioxo-8-oxa-4,15-diazahexacyclo[14.7.1.0^2,^14.0^4,^13.0^6,^11.0^20,^24]tetracosa-1,6(11),12,14,16,18,20(24)-heptaen-23-yl]carbamoyl}oxy)methyl]phenoxy]-3,4,5-trihydroxyoxane-2-carboxylic acid]	0.457			
CC[C@@]1(O)C(=O)OCc2c1cc1n(c2=O)Cc2c-1nc1cc(F)c(C)c3c1c2[C@@H](NC(=O)OCc1ccc(O[C@@H]2O[C@H](CO)[C@@H](O)[C@H](O)[C@H]2O)c(C(=O)NCCOCCOCCNC(=O)CCOCC(COCCC(=O)NCCOCCOCCNC(=O)c2cc(COC(=O)N[C@H]4CCc5c(C)c(F)cc6nc7c(c4c56)Cn4c-7cc5c(c4=O)COC(=O)[C@]5(O)CC)ccc2O[C@@H]2O[C@H](CO)[C@@H](O)[C@H](O)[C@H]2O)NC(=O)CCOCCOCCNC(=O)COC2C#CCCCCC2)c1)CC3 (some centres unmarked) [LP16]	0.14			
CC[C@@](O)(C(=O)NCCN)c1cc2n(c(=O)c1COC(C)=O)Cc1c-2nc2cc(F)c(C)c3c2c1[C@@H](NC(=O)COC(C)=O)CC3 [P13, {[(19S)-6-[(Acetyloxy)methyl]-7-[(1 S)-1-[(2-aminoethyl)carbamoyl]-1-hydroxypropyl]-14-fluoro-15-methyl-5-oxo-4,11-diazapentacyclo[10.7.1.0^2,^10.0^4,^9.0^16,^20]icosa-1,6,8,10,12,14,16(20)-heptaen-19-yl]carbamoyl}methyl acetate]		0.134		
CC[C@@]1(O)C(=O)OCc2c1cc1n(c2=O)Cc2c-1nc1ccccc1c2CCN(C(C)C)S(C)(=O)=O [P9, N-{2-[(19S)-19-ethyl-19-hydroxy-14,18-dioxo-17-oxa-3,13-diazapentacyclo[11.8.0.0^2,^11.0^4,^9.0^15,^20]henicosa-1(21),2,4,6,8,10,15(20)-heptaen-10-yl]ethyl}-N-(propan-2-yl)methanesulfonamide]		0.00889	0.00303	
CC[C@@]1(O)C(=O)OCc2c1cc1n(c2=O)Cc2c-1nc1cc(F)c(C)c3c1c2[C@@H](NC(=O)[C@H](Cc1ccccc1)NC(=O)OCc1ccc(NC(=O)[C@H](CCCNC(N)=O)NC(=O)[C@@H](NC(=O)CCOCCOCCOCCOCCNC(=O)COC2C#CCCCCC2)C(C)C)cc1)CC3 (stereo partly drawn) [LP10, {4-[(2S)-5-(carbamoylamino)-2-[(2S)-2-{1-[2-(cyclooct-2-yn-1-yloxy)acetamido]-3,6,9,12-tetraoxapentadecan-15-amido}-3-methylbutanamido]pentanamido]phenyl}methyl N-[(1 S)-1-{[(10S,23S)-10-ethyl-18-fluoro-10-hydroxy-19-methyl-5,9-dioxo-8-oxa-4,15-diazahexacyclo[14.7.1.0^2,^14.0^4,^13.0^6,^11.0^20,^24]tetracosa-1,6(11),12,14,16,18,20(24)-heptaen-23-yl]carbamoyl}-2-phenylethyl]carbamate]	0.852			
CC[C@@]1(O)C(=O)OCc2c1cc1n(c2=O)Cc2c-1nc1cc(F)c(C)c3c1c2[C@@H](NC(=O)[C@@H](N)CCC(=O)O)CC3 [P3, (4S)-4-amino-4-{[(10S,23S)-10-ethyl-18-fluoro-10-hydroxy-19-methyl-5,9-dioxo-8-oxa-4,15-diazahexacyclo[[14.7.1.0^2,^14.0^4,^13.0^6,^11.0^20,^24]]tetracosa-1,6(11),12,14,16,18,20(24)-heptaen-23-yl]carbamoyl}butanoic acid]		0.61	0.596	
CC[C@@]1(O)C(=O)OCc2c1cc1n(c2=O)Cc2c-1nc1ccc(OC)cc1c2CNCCCN=[N+]=[N-] [P23, (S)-11-(((3-azidopropyl)amino)methyl)-4-ethyl-4-hydroxy-9-methoxy-1,12-dihydro-14H-pyrano[3′,4′:6,7]indolizino[1,2-b]quinoline-3,14(4H)-dione]		0.0367		
CC[C@@]1(O)C(=O)OCc2c1cc1n(c2=O)Cc2c-1nc1ccc(OC)cc1c2CNCc1ccccc1 [P26, (S)-11-((benzylamino)methyl)-4-ethyl-4-hydroxy-9-methoxy-1,12-dihydro-14H-pyrano[3′,4′:6,7]indolizino[1,2-b]quinoline-3,14(4H)-dione]		0.0519		
CC[C@@]1(O)C(=O)OCc2c1cc1n(c2=O)Cc2cc3cc(O)ccc3nc2-1 [P14, 10-hydroxy camptothecin, reference compound]		0.0116	0.00679	
CC[C@@]1(O)C(=O)OCc2c1cc1n(c2=O)Cc2c-1nc1cc(F)c(C)c3c1c2[C@@H](NC(=O)OCc1ccc(NC(=O)[C@H](CCCNC(N)=O)NC(=O)[C@@H](NC(=O)CCOCCOCCOCCOCCNC(=O)COC2C#CCCCCC2)C(C)C)cc1)CC3 (stereo partly drawn) [LP1, {4-[(2S)-5-(Carbamoylamino)-2-[(2S)-2-{1-[2-(cyclooct-2-yn-1-yloxy)acetamido]-3,6,9,12-tetraoxapentadecan-15-amido}-3-methylbutanamido]pentanamido]phenyl}methyl N-[(10S,23S)-10-ethyl-18-fluoro-10-hydroxy-19-methyl-5,9-dioxo-8-oxa-4,15-diazahexacyclo[14.7.1.0^2,^14.0^4,^13.0^6,^11.0^20,^24]tetracosa-1,6(11),12,14,16,18,20(24)-heptaen-23-yl]carbamate]	0.289			
CC[C@@]1(O)C(=O)OCc2c1cc1n(c2=O)Cc2c-1nc1ccc(OC)cc1c2CO [P20, (19S)-19-Ethyl-19-hydroxy-10-(hydroxymethyl)-7-methoxy-17-oxa-3,13-diazapentacyclo[11.8.0.0^2,^11.0^4,^9.0^15,^20]henicosa-1(21),2,4,6,8,10,15(20)-heptaene-14,18-dione]		0.00369	0.0024	
CC[C@@]1(O)C(=O)OCc2c1cc1n(c2=O)Cc2c-1nc1ccccc1c2CCN(CCO)C(C)C [P10, (19S)-19-ethyl-19-hydroxy-10-{2-[(2-hydroxyethyl)(propan-2-yl)amino]ethyl}-17-oxa-3,13-diazapentacyclo[11.8.0.0^2,^11.0^4,^9.0^15,^20]henicosa-1(21),2,4,6,8,10,15(20)-heptaene-14,18-dione]		0.0086	0.00438	
CC[C@@]1(O)C(=O)OCc2c1cc1n(c2=O)Cc2c-1nc1cc(F)c(C)c3c1c2[C@@H](NC(=O)OCc1ccc(O[C@@H]2O[C@H](CO)[C@@H](O)[C@H](O)[C@H]2O)c(C(=O)NCCNC(=O)COC2C#CCCCCC2)c1)CC3 (stereo partly drawn) [LP4, [3-({2-[2-(Cyclooct-2-yn-1-yloxy)acetamido]ethyl}carbamoyl)-4-{[(2S,3R,4S,5S,6R)-3,4,5-trihydroxy-6-(hydroxymethyl)oxan-2-yl]oxy}phenyl]methyl N-[(10S,23S)-10-ethyl-18-fluoro-10-hydroxy-19-methyl-5,9-dioxo-8-oxa-4,15-diazahexacyclo[14.7.1.0^2,^14.0^4,^13.0^6,^11.0^20,^24]tetracosa-1,6(11),12,14,16,18,20(24)-heptaen-23-yl]carbamate]	0.363			
C#CCNCc1c2c(nc3ccc(OC)cc13)-c1cc3c(c(=O)n1C2)COC(=O)[C@]3(O)CC [P24, (S)-4-ethyl-4-hydroxy-9-methoxy-11-((prop-2-yn-1-ylamino)methyl)-1,12-dihydro-14H-pyrano[3′,4′:6,7]indolizino[1,2-b]quinoline-3,14(4H)-dione]		0.0135		
CC[C@@]1(O)C(=O)OCc2c1cc1n(c2=O)Cc2c-1nc1cc(F)c(C)c3c1c2[C@@H](NC(=O)[C@H](CCC(=O)O)NC(=O)OCc1ccc(NC(=O)[C@H](CCCNC(N)=O)NC(=O)[C@@H](NC(=O)CCOCCOCCOCCOCCNC(=O)COC2C#CCCCCC2)C(C)C)cc1)CC3 (stereo partly drawn) [LP9, (4S)-4-{[({4-[(2S)-5-(carbamoylamino)-2-[(2S)-2-{1-[2-(cyclooct-2-yn-1-yloxy)acetamido]-3,6,9,12-tetraoxapentadecan-15-amido}-3-methylbutanamido]pentanamido]phenyl}methoxy)carbonyl]amino}-4-{[(10S,23S)-10-ethyl-18-fluoro-10-hydroxy-19-methyl-5,9-dioxo-8-oxa-4,15-diazahexacyclo[14.7.1.0^2,^14.0^4,^13.0^6,^11.0^20,^24]tetracosa-1,6(11),12,14,16,18,20(24)-heptaen-23-yl]carbamoyl}butanoic acid]	0.722			
CC[C@@]1(O)C(=O)OCc2c1cc1n(c2=O)Cc2c-1nc1cc(F)c(C)c3c1c2[C@@H](NC(=O)CO)CC3 [P12, Dxd, reference compound]		0.00799		0.00418
CC[C@@]1(O)C(=O)OCc2c1cc1n(c2=O)Cc2c-1nc1ccc(OC)cc1c2CN [P22, (19S)-10-(Aminomethyl)-19-ethyl-19-hydroxy-7-methoxy-17-oxa-3,13-diazapentacyclo[11.8.0.0^2,^11.0^4,^9.0^15,^20]henicosa-1(21),2,4,6,8,10,15(20)-heptaene-14,18-dione]		0.0319	0.0405	
CC[C@@]1(O)C(=O)OCc2c1cc1n(c2=O)Cc2c-1nc1cc(F)c(C)c3c1c2[C@@H](NC(=O)[C@@H](N)Cc1ccccc1)CC3 [P5, (2S)-2-amino-N-[(10S,23S)-10-ethyl-18-fluoro-10-hydroxy-19-methyl-5,9-dioxo-8-oxa-4,15-diazahexacyclo[[14.7.1.0^2,^14.0^4,^13.0^6,^11.0^20,^24]]tetracosa-1,6(11),12,14,16,18,20(24)-heptaen-23-yl]-3-phenylpropanamide]		0.0483	0.0042	
CC[C@@]1(O)C(=O)OCc2c1cc1n(c2=O)Cc2c-1nc1ccc(OC)cc1c2CN(C)Cc1ccc(OC)cc1 [P25, (S)-4-ethyl-4-hydroxy-9-methoxy-11-(((4-methoxybenzyl)(methyl)amino)methyl)-1,12-dihydro-14H-pyrano[3′,4′:6,7]indolizino[1,2-b]quinoline-3,14(4H)-dione]		0.0468		
CCc1c2c(nc3ccc(O)cc13)-c1cc3c(c(=O)n1C2)COC(=O)[C@]3(O)CC [P16, 7-ethyl-10-hydroxycamptothecin, reference compound]		0.00611	0.00477	
